Where two headings read alike, the source gives them in different places.
Columns and labels:
[1] = test system: HT29 (Human colon, B-Raf V599E); experiment: Cell proliferation assay (Cell Titer Glo); assay type: cell-based
Method: (§1) In one illustrative method, cells are treated with various concentrations of the inhibitor in 96 well plates, incubated at 37° C./5% CO2 for three days, and analyzed using the Cell Titer Glo kit (Promega).
(§2) COLO829 is a human melanoma cell line. HT29 is a human colon cancer cell line. Both cell lines have a V600E B-Raf mutation. SKOV3 is an ovarian cancer cell line having wild-type B-Raf. EKR2 (extra-cellular signal regulated kinase 2) is a kinase in the Ras/B-Raf MAP kinase cascade pathway.

[2] = test system: COLO829 (Human melanoma, B-Raf V599E); experiment: Cell proliferation assay (Cell Titer Glo); assay type: cell-based
Method: as §1, §2

[3] = test system: SKOV3 (ovarian cancer cell line, wild-type B-Raf); experiment: Cell proliferation assay; assay type: cell-based; conditions: Homo sapiens, SK-OV-3; Table 7; SKOV3 ovarian cancer, wild-type B-Raf; read-out: Cell Line IC50 SKOV3
Method: as §1, §2

ERK2 [4] = biological target: ERK2 (UniProt P28482); assay type: biochemical; design: "the target Cys 172 residue
Method: (§3) In either case, the time dependent inactivation can be dampened by the presence of a competing substrate, in this case ATP.
(§4) For covalent inhibitors, plots of log (activity) versus time provide apparent first-order rate constants (kobsd) of enzyme activity loss. If these assays are performed at varying concentrations of inhibitor, a series of first-order plots is obtained and kobsd obtained at each inhibitor concentration. […] Such molecules may be competitive inhibitors but should not show time-dependent inactivation.
(§5) Inhibition progress curve analysis was performed using continuous, colorimetric, or fluorimetric assays. All experiments were done at 1 mM ATP, with the exception of KDR (at 5 mM ATP).
(§6) MEK1 assays were performed using pre-incubation experiments with radioactive [^32P]ATP and filter binding of product. All other kinases were analyzed using progress curve analysis from a continuous spectrophotometric assay.

[5] = test system: WM266-4 (Human melanoma, B-Raf V599D); experiment: Cell proliferation assay (Cell Titer Glo); assay type: cell-based
Method: as §1

[6] = test system: A375 (Human melanoma, B-Raf V599E); experiment: Cell proliferation assay (Cell Titer Glo); assay type: cell-based
Method: as §1

[7] = test system: MV4-11 (Human leukemia Flt3-ITD); experiment: Cell proliferation assay (Cell Titer Glo); assay type: cell-based
Method: as §1

[8] = test system: P815 (Mouse mastocytoma, KIT D814Y); experiment: Cell proliferation assay (Cell Titer Glo); assay type: cell-based
Method: as §1

[9] = test system: A549 (NSCLC, B-Raf wild-type); experiment: Cell proliferation assay (Cell Titer Glo); assay type: cell-based
Method: as §1

[10] = test system: DU4475 (Human breast, B-Raf V599E); experiment: Cell proliferation assay (Cell Titer Glo); assay type: cell-based
Method: as §1

[11] = test system: EOL-1 (Human leukemia FLP1L1-PDGFRA); experiment: Cell proliferation assay (Cell Titer Glo); assay type: cell-based
Method: as §1

ERK2 [12] = biological target: ERK2 (UniProt P28482); assay type: biochemical; design: Ki; other: ERK2; 1 mM ATP; kinact; T1/2; kinact/Ki; "the target Cys 172 residue; conditions: ERK2
Method: as §3, §4, §5, §6

MEK1 [13] = biological target: T1, MEK1 (Homo sapiens, UniProt Q02750); experiment: Time-dependent kinase inhibition kinetics (pre-incubation, [32P]ATP filter binding); assay type: biochemical
Method: Typically, one measures the increase in inhibition of protein kinase activity in the presence of inhibitor over time. In one method, aliquots of a “pre-incubation” reaction mixture containing enzyme and inhibitor are assayed for activity (initial velocities) over time; increased inhibition or decreased initial velocities will be observed over time as the Michael adduct forms (Walsh, C, Enzyme Reaction Mechanisms, W.H. Freeman & Co., 1979, pp 86-94). In a second method, the time dependent loss of activity is measured as “progress curves” that measure and analyze product formed (e.g. ADP) versus time (Morrison & Walsh, Adv. Enzymol Relat Areas Mol. Biol. 1988, 61, 201-301). In either case, the time dependent inactivation can be dampened by the presence of a competing substrate, in this case ATP.
MEK1 and many other protein kinases that can be targets of the compounds useful in the methods of the invention can be obtained commercially (Invitrogen; Carlsbad, Calif.) or prepared using standard molecular biology techniques. After activation by phosphorylation, they are assayed for their ability to phosphorylate a target kinase or surrogate substrate. For example, MEK1 can be assayed in a mixture containing MEK1 (30 nM) and ERK1 (2 μM), [γ-^32P]ATP (10 uM) and MgCl2 in Mops buffer pH 7.6. Phosphorylation can be measured by isolating [γ-^32P]-phosphorylated ERK1 on phosphocellulose paper, and counting radioactive product. Alternatively, a coupled enzyme system may be used in which a product of the kinase reaction, such as ADP, is measured by analysis with a secondary system that converts that product (e.g. ADP) to an easily measurable entity (e.g. NADH); often, such coupled systems can be measured by convenient spectrophotometry assays.
To measure time-dependent inhibition using the “pre-incubation method”, MEK1 (or other kinase) is incubated with varying amounts of the lactone inhibitor; […]. Aliquots are removed at various times, added to a solution containing substrates [γ-^32P]ATP, ERK1 (or other substrate), and the other components of the reaction, and initial rates are determined as a measure of remaining enzyme activity.
For covalent inhibitors, plots of log (activity) versus time provide apparent first-order rate constants (kobsd) of enzyme activity loss. If these assays are performed at varying concentrations of inhibitor, a series of first-order plots is obtained and kobsd obtained at each inhibitor concentration. To measure time-dependent inhibition using the “progress-curve method” (see references cited above and Kuzmic et al., Methods Enzymol 2004; 383: 366-81), ERK (or other kinase) is treated with varying amounts of the lactone inhibitor, and the formation of ADP is measured continuously by a coupled assay. […] Such molecules may be competitive inhibitors but should not show time-dependent inactivation.
Those of skill in the art will recognize that within the set of compounds useful in the methods of the invention, significant variability in specificity can be achieved, allowing one to identify optimal compounds for different applications. Inhibition progress curve analysis was performed using continuous, colorimetric, or fluorimetric assays. All experiments were done at 1 mM ATP, with the exception of KDR (at 5 mM ATP).
as §6

[14] = test system: ERK1/2 activation in human T cells; conditions: tested at 0.3 to 3 μM; cited from earlier work
MEK1 [15] = biological target: T1, MEK1; conditions: cited from earlier work
PKA, PKC or Raf = conditions: cited from earlier work
rat MEK1 = rat MEK1 (Rattus norvegicus, UniProt Q01986); conditions: cited from earlier work
panel of 120 kinases = conditions: panel of some 120 kinases; cited from earlier work
BCCs in Ptc+/− mice = conditions: topical; cited from earlier work
[16] = test system: ASZ001 (Basal cell carcinoma); experiment: Cell proliferation assay (Cell Titer Glo); assay type: cell-based
Method: as §1

[17] = HT-29, Table 7, HT29 human colon cancer, V600E B-Raf, read-out: Cell Line IC50 HT29
[18] = COLO-829, Table 7, COLO829 human melanoma, V600E B-Raf, read-out: Cell Line IC50 COLO829
[19] = HT29 (Human colon, B-Raf V599E), Tables 1 and 4, read-out: Kinase Inhibitor IC50
[20] = WM266-4 (Human melanoma, B-Raf V599D), Tables 1 and 4, read-out: Kinase Inhibitor IC50
[21] = A375 (Human melanoma, B-Raf V599E), Tables 1 and 4, read-out: Kinase Inhibitor IC50
[22] = A549 (NSCLC, B-Raf wild-type), Tables 1 and 4, read-out: Kinase Inhibitor IC50
[23] = DU4475 (Human breast, B-Raf V599E), Tables 1 and 4, read-out: Kinase Inhibitor IC50

rat MEK1, sequence (Q01986 whole entry): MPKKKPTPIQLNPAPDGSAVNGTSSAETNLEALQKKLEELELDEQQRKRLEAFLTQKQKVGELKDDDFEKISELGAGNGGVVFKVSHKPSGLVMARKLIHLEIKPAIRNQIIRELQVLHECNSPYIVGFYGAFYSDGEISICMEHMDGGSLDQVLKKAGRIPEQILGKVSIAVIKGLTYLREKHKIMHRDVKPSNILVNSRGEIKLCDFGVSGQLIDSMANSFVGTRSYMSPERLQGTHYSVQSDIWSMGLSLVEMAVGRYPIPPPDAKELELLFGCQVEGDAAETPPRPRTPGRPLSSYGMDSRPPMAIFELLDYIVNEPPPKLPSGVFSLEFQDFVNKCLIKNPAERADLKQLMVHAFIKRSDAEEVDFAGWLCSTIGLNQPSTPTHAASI

## C[C@H]1C/C=C\C(=O)[C@@H](O)[C@@H](O)C[C@H]2O[C@@H]2c2cc(O)cc(O)c2C(=O)O1 [Compound II, 4-O-desmethylhypothemycin]
[1]; [17]
  IC50: 0.1 µM
[2]; [18]
  IC50: 0.038 µM
[3]
  IC50: 1.8 µM
ERK2 [4]
  ERK2 Inhibition kinact.: 3.3 ± 0.4 × 10^−3 sec^−1
ERK2 [4]; Table 7; read-out: ERK2 Inhibition Ki
  Ki: 2.2 ± 0.4 µM

## CNC(=O)c1cc(Oc2ccc(NC(=O)Nc3ccc(Cl)c(C(F)(F)F)c3)cc2)ccn1 [BAY 43-9006, Sorafenib]
[1]; Homo sapiens, HT-29, read-out: Kinase Inhibitor IC50
  IC50: 4.7 µM
[2]; Homo sapiens, COLO-829
  GI50: 6 µM
[2]; Homo sapiens, COLO-829, read-out: Kinase Inhibitor IC50
  IC50: 6 µM
[5]; Homo sapiens, WM 266-4, read-out: Kinase Inhibitor IC50
  IC50: 5.4 µM
[6]; Homo sapiens, A-375, read-out: Kinase Inhibitor IC50
  IC50: 4.3 µM
[7]; Homo sapiens, MV4-11, read-out: Kinase Inhibitor IC50
  IC50: 0.0023 µM
[8]; Mus musculus, P815
  GI50: 0.31 µM
[8]; Mus musculus, P815, read-out: Kinase Inhibitor IC50
  IC50: 0.31 µM
[9]; Homo sapiens, A549, read-out: Kinase Inhibitor IC50
  IC50: 5.5 µM
[10]; Homo sapiens, DU-4475, read-out: Kinase Inhibitor IC50
  IC50: 3.6 µM
[11]; Homo sapiens, EOL1, read-out: Kinase Inhibitor IC50
  IC50: 0.00023 µM

## 5,6-Dihydrohypothemycin
[1]; [19]
  IC50: 15 µM
[2]; COLO829 (Human melanoma, B-Raf V599E), Tables 1 and 4, read-out: Kinase Inhibitor IC50
  IC50: 3.7 µM
[5]; [20]
  IC50: 15 µM
[6]; [21]
  IC50: > 50 µM
[9]; [22]
  IC50: 107 µM
[10]; [23]
  IC50: 46 µM
ERK2 [12]
  kinact/Ki: None
ERK2 [12]; 1 mM ATP
  kinact: None
ERK2 [12]; 1 mM ATP, read-out: Ki
  Ki: 28 µM
MEK1 [13]
  kinact/Ki: None
MEK1 [13]; 1 mM ATP
  Ki: 3 µM
  kinact: None

## C[C@H]1CCCC(=O)CCC/C=C/c2cc(O)cc(O)c2C(=O)O1 [zearalenone]
[14]
  inhibition of the activation of ERK1/2: not

## C[C@H]1C/C=C\C(=O)[C@@H](O)[C@@H](O)C[C@H]2O[C@@H]2c2cc(OCC3CCCN(C)C3)cc(O)c2C(=O)O1 (stereo partly shown) [V]
[1]; [17]
  IC50: 0.6 µM
[2]; [18]
  IC50: 0.079 µM
[3]
  IC50: 15 µM
ERK2 [4]; Table 7
  ERK2 Inhibition kinact.: 1 ± 0.1 × 10^−3 sec^−1
ERK2 [4]; read-out: ERK2 Inhibition Ki; Table 7
  Ki: 0.94 ± 0.58 µM

## COc1cc(O)c2c(c1)CCC[C@H](O)[C@H](O)C(=O)/C=C\C[C@H](C)OC2=O [L-783,277]
MEK1 [15]; 60 min. pre-incubation
  reduction of the IC50 value for MEK1 by pre-incubation: 10 fold
MEK1 [15]; MEK1
  IC50: 0.004 µM
PKA, PKC or Raf
  inhibition of PKA, PKC or Raf: not

## COc1cc(O)c2c(c1)/C=C/C[C@H](O)[C@H](O)C(=O)/C=C\C[C@H](C)OC2=O [(5Z)-7-oxozeaneol]
Rat MEK1
  IC50: 0.411 µM

## COc1cccc(-c2cc(=O)c3ccccc3o2)c1N [PD 98059]
[1]; [19]
  IC50: 5.5 µM
[5]; [20]
  IC50: 21 µM
[6]; [21]
  IC50: 43 µM
[9]; [22]
  IC50: 48 µM
[10]; [23]
  IC50: 56 µM

## CCN(CC)CCNC(=O)c1c(C)[nH]c(/C=C2\C(=O)Nc3ccc(F)cc32)c1C [SU11248]
Panel of 120 kinases
  number of kinases inhibited: ~79
[1]; HT-29, HT29 (Human colon, B-Raf V599E), Tables 1 and 4, read-out: Kinase Inhibitor IC50
  IC50: 4.2 µM
[2]; COLO-829, COLO829 (Human melanoma, B-Raf V599E), Tables 1 and 4, read-out: Kinase Inhibitor IC50
  IC50: 7.1 µM
[2]; Homo sapiens, COLO-829, melanoma cell line COLO829, read-out: GI50
  GI50: 7.1 µM
[5]; WM 266-4, WM266-4 (Human melanoma, B-Raf V599D), Tables 1 and 4, read-out: Kinase Inhibitor IC50
  IC50: 8.2 µM
[6]; A-375, A375 (Human melanoma, B-Raf V599E), Tables 1 and 4, read-out: Kinase Inhibitor IC50
  IC50: 5.4 µM
[7]; Homo sapiens, MV4-11, AML (FLT3 ITD) cell line MV-4-11, read-out: GI50
  GI50: 0.012 µM
[7]; MV4-11 (Human leukemia Flt3-ITD), read-out: Kinase Inhibitor IC50
  IC50: 0.01 µM
[8]; P815 (Mouse mastocytoma, KIT D814Y), read-out: Kinase Inhibitor IC50
  IC50: 0.32 µM
[8]; mouse mastocytoma cell line P815, constitutively active cKIT (D814Y), read-out: GI50
  GI50: 0.32 µM
[10]; DU-4475, DU4475 (Human breast, B-Raf V599E), Tables 1 and 4, read-out: Kinase Inhibitor IC50
  IC50: 4 µM
[11]; EOL1, EOL-1 (Human leukemia FLP1L1-PDGFRA), read-out: Kinase Inhibitor IC50
  IC50: 0.0017 µM

## CCOC(=O)c1ccc(C#Cc2ccc3c(c2)C(C)(C)CCS3)nc1 [Tazarotene]
BCCs in Ptc+/− mice
  inhibition of development of BCCs: > 85%
[16]; ASZ001 (Basal cell carcinoma), read-out: Kinase Inhibitor IC50
  IC50: 10 µM
[16]; BCC cell line ASZ001 in culture, read-out: IC50
  IC50: ~10 µM

Source: patent publication US20100004234A1, “SPECIFIC KINASE INHIBITORS” (Kosan Biosciences Incorporated, priority 2004, published 2010)
